# Assays:
# Format in all cases: in vivo, Balb/C mice
# bone marrow cells = assay: Colony forming units in bone marrow of mice recovering from cyclophosphamide (Example 40); settings: 2.5 μmoles/mouse/day i.p.
# Procedure: Seventy-two Balb/C female mice weighing approximately 20 grams each were given cyclophosphamide (275 mg/kg) by intraperitoneal (i.p.) injection. Twenty-four hours later and each day thereafter, mice received a 0.4 ml i.p. injection of either physiological saline (control) or palmitoylguanosine (2.5 μmoles/mouse/day in 0.2% Tween 80). On days 3, 5, 7, and 10 following CP administration 6 animals from each group were sacrificed by cervical dislocation, and the left femur of each animal obtained by sterile means. The bone marrow cells were then flushed from the femurs with McCoy's 5a Modified medium using a 23-gauge needle. Cells from femurs in the same group were pooled, dispersed by briefly vortexing, and counted using a hemocytometer. Cell suspensions were added to McCoy's Modified 5a medium containing 15% bovine calf serum, 1x Kanamycin, 0.3% agar, and 3% endotoxin-stimulated serum. […] Each group was plated in quintuplicate. After 7 days in culture (at 37° in 5% CO2 and humidified air) aggregates of 50 cells or more ("colonies") were counted using a dissecting microscope at 25x.
# [1] = test system: hematopoietic recovery after 5-fluorouracil; assay: Hematopoietic recovery after 5-fluorouracil (Example 42)
# Procedure: 5-fluorouracil (5-FU) (150 mg/kg, i.p.) was administered to forty Balb/C female mice weighing approximately 20 grams each. Twenty-four hours later and each day thereafter for a total of 8 days, mice were given a 0.4 ml i.p. injection of either physiological saline (controls) or 5'-O-palmitoylguanosine (2.5 μmoles/mouse/day in 0.2% Tween 80). On days 7 and 14 following 5-FU administration half of the animals from each group were bled and then were sacrificed by cervical dislocation. Spleens were removed and weighed, and complete blood cells counts performed.
# [2] = test system: hematopoietic recovery after cyclophosphamide; assay: Comparative dose-response, hematopoietic recovery after cyclophosphamide (Example 53)
# Procedure: Cyclophosphamide (CP) (275 mg/kg, i.p.) was administered to 96 Balb/C female mice weighing approximately 20 grams each. Twenty-four hours later and each day thereafter mice were given a 0.4 ml i.p. injection of either physiological saline (controls), palmitoylguanosine at one of four different doses: 0.2, 0.4, 1.0 or 2.0 μmoles/mouse), or palmitoyldeoxyguanosine at a dose of 1.0 μmoles/mouse. On days 5 and 7 following CP administration 8 animals from each of the 6 groups were bled and then sacrificed by cervical dislocation. Spleens were removed and weighed, and complete blood cell counts performed.
# [3] = day 5, palmitoylguanosine 2.0, palmitoyldeoxyguanosine 1.0 μmoles/mouse
# [4] = day 7, palmitoylguanosine 1.0 and 2.0, palmitoyldeoxyguanosine 1.0 μmoles/mouse
smiles,measurement,setting,value
CCCCCCCCCCCCCCCC(=O)OC[C@H]1O[C@@H](n2cnc3c(=O)[nH]c(N)nc32)[C@H](O)[C@@H]1O,colony-forming units,bone marrow cells; day 3,645 ± 26 colonyforming units per femur
same,colony-forming units,bone marrow cells; day 5,2327 ± 121 colonyforming units per femur
same,colony-forming units,bone marrow cells; day 7,1328 ± 140 colonyforming units per femur
same,colony-forming units,bone marrow cells; day 10,647 ± 25 colonyforming units per femur
same,spleen weight,"[1]; day 7, 2.5 μmoles/mouse/day i.p.","slight, but statistically significant, increase in spleen weight"
same,other parameters,"[1]; day 7, vs control",No other differences
same,Lymphocytes,[1]; day 14,significantly higher numbers
same,Neutrophils,[1]; day 14,significantly higher numbers
same,Platelets,[1]; day 14,significantly higher numbers
same,spleen weight,[1]; day 14,significantly heavier spleens
same,total leukocytes,[1]; day 14,significantly higher numbers
same,total neutrophil counts,"[2]; day 5, palmitoylguanosine 1.0 μmoles/mouse",significantly increased
same,spleen weight,[2]; [3],significantly elevated
same,total neutrophil counts,[2]; [3],significantly elevated
same,white blood cell counts,[2]; [3],significantly elevated
same,spleen weight,[2]; [4],significantly elevated
same,total neutrophil counts,[2]; [4],significantly elevated
same,white blood cell counts,[2]; [4],significantly elevated

# — patent US6054441A, “Oxypurine nucleosides and their congeners, and acyl derivatives thereof, for improvement of hematopoiesis” (priority 1995, dated 2000)
